Test results published in PubChem BioAssay AID1963842 (Molecular Pharmacology Branch, DTP, NCI, 2024).

Tested on: 677734-321-R-J1-PDC complex spheroid viability
Assay: Anticancer human tumor 677734-321-R-J1-PDC patient-derived soft tissue sarcoma cell line growth inhibition [POLQ]
Conditions: for IC50: curve of first compound; for viability, T/C: stronger effect = lower value
Experimental: Multicellular complex tumor spheroid response to Polymerase (POL) inhibitors (novobiocin, ART-558, RP6685) in combination with a variety of drugs and investigational agents in selected tumor cell lines
The POL inhibitors (novobiocin, ART-558, and RP6685) were evaluated both individually and in combination with standard of care and investigational anticancer small molecules within a complex spheroid model of solid tumors. . Complex spheroids include a stromal component modeled by human endothelial cells (HUVEC) and fibroblasts modeled by human mesenchymal stem cells (MSCs). The concentration ranges selected for each drug and investigational agent were based upon clinically achievable concentrations if the clinical Cmax of the agent was known.
Compounds. The drugs and investigational agents: novobiocin (NSC847541), ART-558 (NSC835418), RP-6685 (NSC848927), peposertib (NSC802822), ceralasertib (NSC780249), elimusertib (NSC800525), camonsertib (NSC841442), AZD-1390 (NSC803789), olaparib (NSC753686), talazoparib (NSC767125), rucaparib (NSC756644), sotorasib (NSC818433), MRTX-1133 (NSC836407), SN-38 (NSC673596), topotecan (NSC609699), epotoside (NSC141540), doxorubicin (NSC123127), gemcitabine (NSC613327), 5-fluorouracil (NSC19893), paclitaxel (NSC125973), vemurafenib (NSC761431), MSA-2 (NSC828583), SN-011 (NSC837082), adavosertib (NSC754352), prexasertib (NSC758257), carboplatin (NSC241240) and oxaliplatin (NSC266046), were obtained from the National Cancer Institute (NCI) Developmental Therapeutics Program Chemical Repository (21). The FDA-approved anticancer drug set is available from the Developmental Therapeutics Program at https://dtp.cancer.gov/organization/dscb/obtaining/. […] The stock solutions were prepared in dimethyl sulfoxide (DMSO, Sigma-Aldrich, St. Louis, MO, cat. D2650), except for the platinum compounds which were prepared in saline (Quality Biological, Gaithersburg, MD, cat. 114-055-101), at 800-fold the tested concentration and stored at -70 degrees C prior to their use. All drugs and investigational agents were tested over a range starting from a high concentration at or near the clinical Cmax and decreasing in half-log increments. If the clinical Cmax for an agent had not been determined, the highest concentration tested was 10 microM, except for SN-38, which was tested at a high concentration of 1 microM.
Cell Culture. All cells were maintained in an incubator at 37 degrees C and 5% CO2 with 95% humidity. The PDC lines were cultured according to standard operating procedures established by the NCI PDMR (https://pdmr.cancer.gov). Table 3 of the manuscript, lists the cell lines along with the number of the three cell types plated to form the mct-spheroids and media for tumor cell growth. After thawing, all PDC lines, except 997537-175-T-J1-PDC and 415267-285-R-J2-PDC, were cultured in Matrigel-coated flasks prepared with a working solution of 1X Ham's F-12 nutrient mix, without supplementation (Thermo Fisher Scientific, cat. 11765054), 100 U/mL penicillin-streptomycin (Thermo Fisher Scientific, cat. 15140122), and 2.5% Matrigel (Corning Inc., Corning, NY, cat. 354248) for the first three passages. The two PDC lines 997537-175-T-J1-PDC and 415267-285-R-J2-PDC were cultured on uncoated flasks. The 857933-349-R-J2-PDC line was cultured in 6C/Colon 1B media containing advanced DMEM/F-12 (Thermo Fisher Scientific, cat. 12634028), 10 mM HEPES (Thermo Fisher Scientific, cat. 15630080), 1X GlutaMAX supplement (Thermo Fisher Scientific, cat. 35050061), 0.1 mg/mL primocin (InvivoGen, San Diego, CA, cat. ant-pm-2), 10% defined fetal bovine serum, heat inactivated (HyClone Laboratories Inc., Logan, UT, cat. SH30070.03HI), 50% L-WRN conditioned media (ATCC, cat. CRL-3276), 1.25 mM N-Acetyl-L-cysteine (Sigma-Aldrich, cat. A9165), 10 mM nicotinamide (Sigma-Aldrich, cat. N0636), 1X B-27 supplement (Thermo Fisher Scientific, cat. 17504044), 1X N-2 supplement (Thermo Fisher Scientific, cat. […]

[1] = second compound 0.0316 µM, first compound 0.00316 µM
[2] = second compound 0.0316 µM, first compound 0.01 µM
[3] = second compound 0.0316 µM, first compound 0.0316 µM
[4] = second compound 0.0316 µM, first compound 0.1 µM
[5] = second compound 0.1 µM, first compound 0.00316 µM
[6] = second compound 0.1 µM, first compound 0.01 µM
[7] = second compound 0.1 µM, first compound 0.0316 µM
[8] = second compound 0.1 µM, first compound 0.1 µM
[9] = second compound 0.316 µM, first compound 0.00316 µM
[10] = second compound 0.316 µM, first compound 0.01 µM
[11] = second compound 0.316 µM, first compound 0.0316 µM
[12] = second compound 0.316 µM, first compound 0.1 µM
[13] = second compound 1 µM, first compound 0.00316 µM
[14] = second compound 1 µM, first compound 0.01 µM
[15] = second compound 1 µM, first compound 0.0316 µM
[16] = second compound 1 µM, first compound 0.1 µM
[17] = second compound 3.16 µM, first compound 0.00316 µM
[18] = second compound 3.16 µM, first compound 0.01 µM
[19] = second compound 3.16 µM, first compound 0.0316 µM
[20] = second compound 3.16 µM, first compound 0.1 µM
[21] = second compound 10 µM, first compound 0.00316 µM
[22] = second compound 10 µM, first compound 0.01 µM
[23] = second compound 10 µM, first compound 0.0316 µM
[24] = second compound 10 µM, first compound 0.1 µM
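Note: spheroids exposed to compounds for one week.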
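Throughout, for viability, T/C: 100% = vehicle DMSO treated spheroids.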

Work on CC[C@@]1(O)C(=O)OCc2c1cc1n(c2=O)Cc2cc3c(CN(C)C)c(O)ccc3nc2-1 + COC1C(OC(N)=O)C(O)C(Oc2ccc3c(O)c(NC(=O)c4ccc(O)c(CC=C(C)C)c4)c(=O)oc3c2C)OC1(C)C yielded an IC50 (second compound 0.0316 µM) of 25.7 nM, an IC50 (second compound 0.1 µM) of 24.6 nM and an IC50 (second compound 0.316 µM) of 26.4 nM. The IC50 (second compound 1 µM) was 23.6 nM, the IC50 (second compound 3.16 µM) was 25.2 nM and the IC50 (second compound 10 µM) was 28.8 nM. It also gave a viability, T/C (second compound 0.0316 µM, first compound 0.000316 µM) of 104%, a viability, T/C (second compound 0.0316 µM, first compound 0.001 µM) of 112% and a viability, T/C [1] of 105%. It also gave a viability, T/C [2] of 105%, a viability, T/C [3] of 37.1% and a viability, T/C [4] of 16.8%. For the same compound, the viability, T/C (second compound 0.1 µM, first compound 0.000316 µM) was 109%, the viability, T/C (second compound 0.1 µM, first compound 0.001 µM) was 108% and the viability, T/C [5] was 109%. The viability, T/C [6] was 100%, the viability, T/C [7] was 33.8% and the viability, T/C [8] was 18.8%. It also gave a viability, T/C (second compound 0.316 µM, first compound 0.000316 µM) of 105%, a viability, T/C (second compound 0.316 µM, first compound 0.001 µM) of 117% and a viability, T/C [9] of 94.2%. For the same compound, the viability, T/C [10] was 103%, the viability, T/C [11] was 39.3% and the viability, T/C [12] was 16.3%. It also gave a viability, T/C (second compound 1 µM, first compound 0.000316 µM) of 113%, a viability, T/C (second compound 1 µM, first compound 0.001 µM) of 109% and a viability, T/C [13] of 106%. For the same compound, the viability, T/C [14] was 106%, the viability, T/C [15] was 29.3% and the viability, T/C [16] was 15.4%. For the same compound, the viability, T/C (second compound 3.16 µM, first compound 0.000316 µM) was 120%, the viability, T/C (second compound 3.16 µM, first compound 0.001 µM) was 108% and the viability, T/C [17] was 110%. For the same compound, the viability, T/C [18] was 98.2%, the viability, T/C [19] was 34.5% and the viability, T/C [20] was 16%. For the same compound, the viability, T/C (second compound 10 µM, first compound 0.000316 µM) was 109%, the viability, T/C (second compound 10 µM, first compound 0.001 µM) was 106% and the viability, T/C [21] was 106%. For the same compound, the viability, T/C [22] was 98.9%, the viability, T/C [23] was 45.6% and the viability, T/C [24] was 18.7%.

For CCc1c2c(nc3ccc(O)cc13)-c1cc3c(c(=O)n1C2)COC(=O)[C@]3(O)CC + COC1C(OC(N)=O)C(O)C(Oc2ccc3c(O)c(NC(=O)c4ccc(O)c(CC=C(C)C)c4)c(=O)oc3c2C)OC1(C)C, the IC50 (second compound 0.0316 µM) was < 3.16 nM, the IC50 (second compound 0.1 µM) was < 3.16 nM and the IC50 (second compound 0.316 µM) was < 3.16 nM. For the same compound, the IC50 (second compound 1 µM) was < 3.16 nM, the IC50 (second compound 3.16 µM) was < 3.16 nM and the IC50 (second compound 10 µM) was < 3.16 nM. For the same compound, the viability, T/C [1] was 28.4%, the viability, T/C [2] was 11.8% and the viability, T/C [3] was 4.37%. For the same compound, the viability, T/C [4] was 3.1%, the viability, T/C (second compound 0.0316 µM, first compound 0.316 µM) was 2.06% and the viability, T/C (second compound 0.0316 µM, first compound 1 µM) was 1.39%. It also gave a viability, T/C [5] of 30%, a viability, T/C [6] of 13.9% and a viability, T/C [7] of 5.1%. For the same compound, the viability, T/C [8] was 2.75%, the viability, T/C (second compound 0.1 µM, first compound 0.316 µM) was 2% and the viability, T/C (second compound 0.1 µM, first compound 1 µM) was 1.2%. The viability, T/C [9] was 28.4%, the viability, T/C [10] was 12% and the viability, T/C [11] was 4.66%. For the same compound, the viability, T/C [12] was 2.52%, the viability, T/C (second compound 0.316 µM, first compound 0.316 µM) was 6.96% and the viability, T/C (second compound 0.316 µM, first compound 1 µM) was 2.86%. It also gave a viability, T/C [13] of 30.1%, a viability, T/C [14] of 13.1% and a viability, T/C [15] of 4.67%. For the same compound, the viability, T/C [16] was 2.88%, the viability, T/C (second compound 1 µM, first compound 0.316 µM) was 2.98% and the viability, T/C (second compound 1 µM, first compound 1 µM) was 1.68%. The viability, T/C [17] was 24.4%, the viability, T/C [18] was 14.4% and the viability, T/C [19] was 6.11%. It also gave a viability, T/C [20] of 3.15%, a viability, T/C (second compound 3.16 µM, first compound 0.316 µM) of 2.62% and a viability, T/C (second compound 3.16 µM, first compound 1 µM) of 1.16%. The viability, T/C [21] was 32%, the viability, T/C [22] was 12.5% and the viability, T/C [23] was 4.86%. It also gave a viability, T/C [24] of 3.88%, a viability, T/C (second compound 10 µM, first compound 0.316 µM) of 2.05% and a viability, T/C (second compound 10 µM, first compound 1 µM) of 1.75%.
